Laboratory results published in PubChem BioAssay AID1259407 (Chemical Carcinogenesis Research Information System (CCRIS), 2018).
Calls of active or inactive are those of the source. The rule behind the calls is not given here.

Test system: CCRIS mutagenicity, Ames/micronucleus/aberration tests
Assay: CCRIS mutagenicity studies
Conditions: Test System: AMES SALMONELLA TYPHIMURIUM

## C1O[C@@H]1[C@@H]1CO1
Strain/Indicator: TA98, Metabolic Activation: HAMSTER, LIVER, S-9, AROCLOR 1254, Method: PREINCUBATION
  mutagenic call: inactive; negative
Strain/Indicator: TA98, Metabolic Activation: HAMSTER, LIVER, S-9, AROCLOR 1254, Method: STANDARD PLATE
  mutagenic call: inactive; negative
Strain/Indicator: TA98, Metabolic Activation: HAMSTER, LIVER, S-9, Method: PREINCUBATION
  mutagenic call: inactive; negative
Strain/Indicator: TA98, Metabolic Activation: HAMSTER, LIVER, S-9, Method: STANDARD PLATE
  mutagenic call: inactive; negative
Strain/Indicator: TA98, Metabolic Activation: MOUSE, LIVER, S-9, AROCLOR 1254, Method: PREINCUBATION
  mutagenic call: inactive; negative
Strain/Indicator: TA98, Metabolic Activation: MOUSE, LIVER, S-9, AROCLOR 1254, Method: STANDARD PLATE
  mutagenic call: inactive; negative
Strain/Indicator: TA98, Metabolic Activation: MOUSE, LIVER, S-9, Method: PREINCUBATION
  mutagenic call: inactive; negative
Strain/Indicator: TA98, Metabolic Activation: MOUSE, LIVER, S-9, Method: STANDARD PLATE
  mutagenic call: inactive; negative
Strain/Indicator: TA98, Metabolic Activation: NONE, Method: PREINCUBATION
  mutagenic call: inactive; negative
Strain/Indicator: TA98, Metabolic Activation: NONE, Method: STANDARD PLATE
  mutagenic call: inactive; negative
Strain/Indicator: TA98, Metabolic Activation: RAT, LIVER, S-9, AROCLOR 1254, Method: PREINCUBATION
  mutagenic call: inactive; negative
Strain/Indicator: TA98, Metabolic Activation: RAT, LIVER, S-9, Method: PREINCUBATION
  mutagenic call: inactive; negative
Strain/Indicator: TA98, Metabolic Activation: RAT, LIVER, S-9, Method: STANDARD PLATE
  mutagenic call: inactive; negative
Strain/Indicator: TA100, Metabolic Activation: HAMSTER, LIVER, S-9, AROCLOR 1254, Method: PREINCUBATION
  mutagenic call: inactive; negative
Strain/Indicator: TA100, Metabolic Activation: HAMSTER, LIVER, S-9, AROCLOR 1254, Method: STANDARD PLATE
  mutagenic call: active; positive
Strain/Indicator: TA100, Metabolic Activation: HAMSTER, LIVER, S-9, Method: PREINCUBATION
  mutagenic call: inactive; negative
Strain/Indicator: TA100, Metabolic Activation: HAMSTER, LIVER, S-9, Method: STANDARD PLATE
  mutagenic call: active; positive
Strain/Indicator: TA100, Metabolic Activation: MOUSE, LIVER, S-9, AROCLOR 1254, Method: PREINCUBATION
  mutagenic call: inactive; negative
Strain/Indicator: TA100, Metabolic Activation: MOUSE, LIVER, S-9, AROCLOR 1254, Method: STANDARD PLATE
  mutagenic call: active; positive
Strain/Indicator: TA100, Metabolic Activation: MOUSE, LIVER, S-9, Method: PREINCUBATION
  mutagenic call: inactive; negative
Strain/Indicator: TA100, Metabolic Activation: NONE, Method: PREINCUBATION
  mutagenic call: inactive; negative
Strain/Indicator: TA100, Metabolic Activation: NONE, Method: STANDARD PLATE
  mutagenic call: active; positive
Strain/Indicator: TA100, Metabolic Activation: RAT, LIVER, S-9, AROCLOR 1254, Method: PREINCUBATION
  mutagenic call: inactive; negative
Strain/Indicator: TA100, Metabolic Activation: RAT, LIVER, S-9, Method: PREINCUBATION
  mutagenic call: inactive; negative
Strain/Indicator: TA100, Metabolic Activation: RAT, LIVER, S-9, Method: STANDARD PLATE
  mutagenic call: active; positive
Strain/Indicator: TA1535, Metabolic Activation: HAMSTER, LIVER, S-9, AROCLOR 1254, Method: PREINCUBATION
  mutagenic call: active; positive
Strain/Indicator: TA1535, Metabolic Activation: HAMSTER, LIVER, S-9, AROCLOR 1254, Method: STANDARD PLATE
  mutagenic call: active; positive
Strain/Indicator: TA1535, Metabolic Activation: HAMSTER, LIVER, S-9, Method: PREINCUBATION
  mutagenic call: active; positive
Strain/Indicator: TA1535, Metabolic Activation: HAMSTER, LIVER, S-9, Method: STANDARD PLATE
  mutagenic call: active; positive
Strain/Indicator: TA1535, Metabolic Activation: MOUSE, LIVER, S-9, AROCLOR 1254, Method: PREINCUBATION
  mutagenic call: active; positive
Strain/Indicator: TA1535, Metabolic Activation: MOUSE, LIVER, S-9, AROCLOR 1254, Method: STANDARD PLATE
  mutagenic call: active; positive
Strain/Indicator: TA1535, Metabolic Activation: MOUSE, LIVER, S-9, Method: PREINCUBATION
  mutagenic call: active; positive
Strain/Indicator: TA1535, Metabolic Activation: MOUSE, LIVER, S-9, Method: STANDARD PLATE
  mutagenic call: active; positive
Strain/Indicator: TA1535, Metabolic Activation: NONE, Method: PREINCUBATION
  mutagenic call: active; positive
Strain/Indicator: TA1535, Metabolic Activation: NONE, Method: STANDARD PLATE
  mutagenic call: active; positive
Strain/Indicator: TA1535, Metabolic Activation: RAT, LIVER, S-9, AROCLOR 1254, Method: PREINCUBATION
  mutagenic call: active; positive
